The source of these data is patent US20140057895A1, “INDAZOLE- AND PYRROLOPYRIDINE-DERIVATIVE AND PHARMACEUTICAL USE THEREOF” (priority 2011, published 2014).

Assay [1] deals with T1, Human 5-HT4 receptor (5-HT4b) (Homo sapiens, UniProt Q13639).
T1 construct: expressed in transfected cells; membrane preparation
In words: Test Example 3: Human 5-HT4 receptor binding assay, membranes of CHO-K1 cells stably expressing 5-HT4b receptors (Table 99). To be noted: mean value of each group. The method, then:
To an assay tube were added 0.1 nM [^3H]-GR113808 {chemical name: [1-[2-(methylsulfonylamino) ethyl]-4-piperidinyl]methyl 1-methylindole-3-carboxylate}, receptor membrane preparations, and Hepes buffer (50 mM, pH 7.4, 4° C., 1 ml) containing test compounds or 30 μM serotonin; and the mixture was incubated at 37° C. for 30 minutes. On quenching the reaction, the mixture was rapidly filtered on whatman GF/B filter, which was presoaked in 0.1% polyethyleneimine for 1 hour, by using Brandel cell Harvester, and washed with ice-cooled 50 mM Tris-HCl (pH 7.7, 4 ml) three times. To the filter after filtration was added a liquid scintillator (Ecoscint), and then a radioactivity was determined by a liquid scintillation counter.
50% Inhibition concentrations (IC50) were determined from inhibition rates of test compounds to specific bindings which were obtained by subtracting nonspecific bindings from total binding amounts of [^3H]-GR113808.
Human 5-HT4 receptor membrane preparations were prepared from CHO-K^1 cells which stably express 5-HT4b receptors, and human 5-HT4 receptor binding assay was carried out in a similar manner as in the guinea pig 5-HT4 receptor binding assay. The following tables show results of serotonin 4 (5-HT4) receptor binding assay. In the following tables, the compounds used in the test are shown in numbers which correspond to the Example numbers above where the preparations of the compounds are described.

The next assay concerns the target T2, human 5-HT4b receptor (Homo sapiens, UniProt Q13639).
T2 construct: expressed in transfected cells; host or cells: CHO cells (G418 selection)
In words: Test Example 4: Serotonin 4 (5-HT4) receptor agonist activity assay, cAMP HTRF in CHO cells (Table 100). Format: cell-based. To be noted: mean value; for Emax: CHO, 0.25 h, intrinsic activity, maximal activity of 5-HT defined as 100%, read-out: IA (%); for EC50: concentration showing 50% of IA. The method, then: The cAMP measurement test used herein was carried out by using CISBIO HTRF (trademark) cAMP Hirange kit according to the manufacturer's instructions attached therewith.
CHO cells expressing human 5-HT4b receptor were incubated in Medium 1 [DMEM/1% NEAA, 1% penicillin/streptomycin (P/S), 0.2 mg/mL GENETICIN (G418), 10% FBS] at 37° C. under 5% CO2 condition. Then, the cells were put into Medium 2 (DMEM/10000 cut FBS, G-418, P/S, NEAA) for 1 to 2 hours, and collected by treating with trypsin containing EDTA. The collected cells were suspended in Assay Buffer 1 [100 mM Hanks/HEPES buffer (pH 7.4)], the suspended cells were mixed with the testing compound on 384-well plates, and the cells were incubated at 31° C. for 15 minutes. To the cells were added cAMP-cryptate solution and cAMP-d2 solution, and they were incubated at room temperature for 1 hour. Then, time-resolved fluorescence was measured by En Vision (excitation wavelength: 330 nm, fluorescence wavelength: 620/665 nm).
An intrinsic activity of the compound [IA (%)] and a concentration showing 50% of IA [EC50 (nM)] were calculated from the obtained results. In particular, the intrinsic activity (IA) was calculated on the basis of the maximal activity of 5-HT (measured from 10^−11 M to 10^−7 M) defined as 100%.
In the following table, the compounds used in the test are shown in numbers which correspond to the Example numbers above where the preparations of the compounds are described.
On the technique in general: TR-FRET usually uses a lanthanide donor and a delayed reading to cut background.

The target of another assay is T3, 5-HT4 receptor (Cavia porcellus, UniProt O70528).
T3 construct: striatum was isolated which was cryopreserved at −80° C. until use; from tissue; host or cells: guinea pig (Slc-Hartley) striatum membranes
T3 sequence (O70528 whole entry): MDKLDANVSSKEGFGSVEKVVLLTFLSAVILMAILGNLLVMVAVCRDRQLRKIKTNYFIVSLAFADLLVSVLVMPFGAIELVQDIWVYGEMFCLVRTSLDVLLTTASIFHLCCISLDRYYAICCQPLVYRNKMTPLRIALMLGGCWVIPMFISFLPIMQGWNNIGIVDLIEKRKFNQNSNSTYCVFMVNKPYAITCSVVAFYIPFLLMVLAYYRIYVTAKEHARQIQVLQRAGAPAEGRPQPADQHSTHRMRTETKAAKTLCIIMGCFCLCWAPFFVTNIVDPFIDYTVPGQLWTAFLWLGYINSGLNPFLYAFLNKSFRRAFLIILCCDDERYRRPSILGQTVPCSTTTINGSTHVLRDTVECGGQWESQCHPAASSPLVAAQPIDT
The experiment in a line: Test Example 3: Guinea pig 5-HT4 receptor binding assay, [3H]-GR113808, striatum membranes (Table 98). The procedure, abridged:
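Striatal membranes from Slc-Hartley guinea pigs were incubated with 0.1 nM [3H]-GR113808 and test compounds in 50 mM Hepes pH 7.4 at 37° C for 30 min; nonspecific binding was defined with 30 μM serotonin. Bound radioactivity was collected by filtration, and IC50 was derived from inhibition of specific binding.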

Setting [2] is: Guinea pig 5-HT4 receptor binding assay, [3H]-GR113808, striatum membranes, mean value of each group, read-out: IC50.

Structures can show the parent of a compound that is named as a salt. Where two headings read alike, the source gives them in different places. Where only a bound is given, the exact number is not on record here.

T2 sequence (Q13639 whole entry): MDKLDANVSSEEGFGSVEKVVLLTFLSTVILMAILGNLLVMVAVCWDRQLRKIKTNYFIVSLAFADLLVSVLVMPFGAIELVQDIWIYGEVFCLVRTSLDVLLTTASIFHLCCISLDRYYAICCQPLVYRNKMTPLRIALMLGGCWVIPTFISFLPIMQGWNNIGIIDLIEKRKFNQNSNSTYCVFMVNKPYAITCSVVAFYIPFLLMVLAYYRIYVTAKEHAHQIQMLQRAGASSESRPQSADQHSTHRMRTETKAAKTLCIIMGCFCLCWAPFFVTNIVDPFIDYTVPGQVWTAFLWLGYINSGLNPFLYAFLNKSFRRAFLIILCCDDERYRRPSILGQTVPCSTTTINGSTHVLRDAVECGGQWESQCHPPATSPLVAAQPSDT
T1 sequence (Q13639 whole entry): as above

For `CC(C)c1nn(-c2noc([C@H]3C[C@@H](NCCC4CCCCO4)C3)n2)c2c(F)cccc12` (relative stereo) [Example 597, cis-3-{3-[7-fluoro-3-(propan-2-yl)-1H-indazol-1-yl]-1,2,4-oxadiazol-5-yl}-N-[2-(tetrahydro-2H-pyran-2-yl)ethyl]cyclobutanamine], the IC50 in assay [1] was found to be 0.0269 µM.
In the case of `CC(C)c1nn(-c2noc([C@H]3C[C@H](NCCC4CCCCO4)C3)n2)c2c(F)cccc12` (relative stereo) [Example 598, trans-3-{3-[7-fluoro-3-(propan-2-yl)-1H-indazol-1-yl]-1,2,4-oxadiazol-5-yl}-N-[2-(tetrahydro-2H-pyran-2-yl)ethyl]cyclobutanamine], the IC50 in assay [1] was less than 0.02 µM.
On to `CC(=O)N1CCC(CN2CCC(c3nc(-n4nc(C(C)C)c5ccccc54)no3)CC2)CC1` [Example 475, 1-{4-[(4-{3-[3-(propan-2-yl)-1H-indazol-1-yl]-1,2,4-oxadiazol-5-yl}piperidin-1-yl)methyl]piperidin-1-yl}ethanone trifluoroacetate], for which, on human 5-HT4b receptor, the Emax was determined as 61% and the response was half-maximal at 0.0136 µM (EC50). The IC50 on 5-HT4 receptor (setting [2]) was found to be 0.0679 µM.
On to `CCc1nn(-c2noc(C3CCN(CC4CCN(C(=O)COC)CC4)CC3)n2)c2c(F)c(F)ccc12` [Example 477, 1-[4-({4-[3-(3-ethyl-6,7-difluoro-1H-indazol-1-yl)-1,2,4-oxadiazol-5-yl]piperidin-1-yl}methyl)piperidin-1-yl]-2-methoxyethanone trifluoroacetate], for which, at human 5-HT4b receptor, the Emax is 65.5% and the EC50 turned out to be 0.0114 µM. The concentration for half-maximal inhibition (IC50) on 5-HT4 receptor (setting [2]) is less than 0.02 µM.
As to `CCc1nn(-c2noc(C3CCN(CC4CCN(C(C)=O)CC4)CC3)n2)c2c(F)c(F)ccc12` [Example 478, 1-[4-({4-[3-(3-ethyl-6,7-difluoro-1H-indazol-1-yl)-1,2,4-oxadiazol-5-yl]piperidin-1-yl}methyl)piperidin-1-yl]ethanone trifluoroacetate], on human 5-HT4b receptor, the Emax was 68.7% and the response was half-maximal at 0.0324 µM (EC50). For the same molecule, the IC50 on 5-HT4 receptor (setting [2]) is less than 0.02 µM.
The corresponding values for `COCC(=O)N1CCC(CN2CCC(c3nc(-n4nc(C(C)C)c5ccc(F)c(F)c54)no3)CC2)CC1` [Example 481, 1-{4-[(4-{3-[6,7-difluoro-3-(propan-2-yl)-1H-indazol-1-yl]-1,2,4-oxadiazol-5-yl}piperidin-1-yl)methyl]piperidin-1-yl}-2-methoxyethanone trifluoroacetate] are 73.8%, 0.0071 µM and less than 0.02 µM.
The corresponding values for `COC(=O)N1CCC(CN2CCC(c3nc(-n4nc(C(C)C)c5ccc(F)c(F)c54)no3)CC2)CC1` [Example 482, methyl 4-[(4-{3-[6,7-difluoro-3-(propan-2-yl)-1H-indazol-1-yl]-1,2,4-oxadiazol-5-yl}piperidin-1-yl)methyl]piperidine-1-carboxylate trifluoroacetate] are 70.5%, 0.0089 µM and 0.0236 µM.
Turning to `CC(=O)N1CCC(N2CC[C@@H](Cc3nc(-n4nc(C(C)C)c5cccc(F)c54)no3)C2)CC1` [Example 507, 1-{4-[(3S)-3-({3-[7-fluoro-3-(propan-2-yl)-1H-indazol-1-yl]-1,2,4-oxadiazol-5-yl}methyl)pyrrolidin-1-yl]piperidin-1-yl}ethanone], on human 5-HT4b receptor, the Emax was 84% and the EC50 was determined as 0.0039 µM. Also, the IC50 at 5-HT4 receptor (setting [2]) is less than 0.02 µM.
For the molecule `CC(C)c1nn(-c2noc(C3CCN(C4CCN(C(=O)CO)CC4)CC3)n2)c2ccccc12` [Example 519], at human 5-HT4b receptor, the Emax stood at 81.1% and the EC50 is 0.0335 µM. Also, at 5-HT4 receptor (setting [2]), the IC50 was 0.0271 µM.
The corresponding values for `CC(C)c1nn(-c2noc(C3CCN(C4CCN(C(=O)CO)CC4)CC3)n2)c2c(F)c(F)ccc12` [Example 520, 1-(4-{3-[6,7-difluoro-3-(propan-2-yl)-1H-indazol-1-yl]-1,2,4-oxadiazol-5-yl}-1,4′-bipiperidin-1′-yl)-2-hydroxyethanone] are 82.9%, 0.0176 µM and less than 0.02 µM.
The corresponding values for `CC(C)c1nn(-c2noc(C3CCN(C[C@H]4CCCN4C(=O)CO)CC3)n2)c2c(F)cccc12` [Example 529, 1-{(2R)-2-[(4-{3-[7-fluoro-3-(propan-2-yl)-1H-indazol-1-yl]-1,2,4-oxadiazol-5-yl}piperidin-1-yl)methyl]pyrrolidin-1-yl}-2-hydroxyethanone hydrochloride] are 95.5%, 0.0012 µM and less than 0.02 µM.
For `CC(C)c1nn(-c2noc(C3CCN(C4CCN(C(=O)CO)CC4C)CC3)n2)c2c(F)cccc12` (centres unmarked) [Example 530, 1-(4-{3-[7-fluoro-3-(propan-2-yl)-1H-indazol-1-yl]-1,2,4-oxadiazol-5-yl}-3′-methyl-1,4′-bipiperidin-1′-yl)-2-hydroxyethanone] the same measures were 97%, 0.0031 µM and less than 0.02 µM.
For the molecule `CC(C)c1nn(-c2noc(C3CCN([C@H]4C[C@H]5CC[C@@H](C4)N5C(=O)CO)CC3)n2)c2c(F)cccc12` [Example 532, 1-[(3-endo)-3-(4-{3-[7-fluoro-3-(propan-2-yl)-1H-indazol-1-yl]-1,2,4-oxadiazol-5-yl}piperidin-1-yl)-8-azabicyclo[3.2.1]oct-8-yl]-2-hydroxyethanone], on human 5-HT4b receptor, the Emax was 99% and it took 0.005 µM to reach a half-maximal effect (EC50). This molecule also returned a half-maximal inhibitory concentration (IC50) at 5-HT4 receptor of less than 0.02 µM.
For `CC(C)c1nn(-c2noc(C3CCN([C@@H]4C[C@H]5CC[C@@H](C4)N5C(=O)CO)CC3)n2)c2c(F)cccc12` [Example 533, 1-[(3-exo)-3-(4-{3-[7-fluoro-3-(propan-2-yl)-1H-indazol-1-yl]-1,2,4-oxadiazol-5-yl}piperidin-1-yl)-8-azabicyclo[3.2.1]oct-8-yl]-2-hydroxyethanone] the same measures were 102%, 0.0038 µM and less than 0.02 µM.
For `CC(C)c1nn(-c2noc(C3(O)CCN(C4CCN(C(=O)CO)CC4)CC3)n2)c2c(F)cccc12` [Example 551, 1-(4-{3-[7-fluoro-3-(propan-2-yl)-1H-indazol-1-yl]-1,2,4-oxadiazol-5-yl}-4-hydroxy-1,4′-bipiperidin-1′-yl)-2-hydroxyethanone] the same measures were 70.4%, 0.0185 µM and 0.0819 µM.
As to `CCc1nn(-c2noc(C3CCN(C4CCN(C(=O)CO)CC4)CC3)n2)c2c(F)cccc12` [compound 244, hydrochloride], at human 5-HT4b receptor, the Emax came to 63.5% and the midpoint of the response, the EC50, lay at 0.0039 µM. Besides, at 5-HT4 receptor (setting [2]), the half-maximal inhibitory concentration (IC50) is less than 0.02 µM.
As to `CCc1nn(-c2noc(C3CCN(CC4CCN(C(=O)CO)CC4)CC3)n2)c2c(F)cccc12` [compound 246, 1-[4-({4-[3-(3-ethyl-7-fluoro-1H-indazol-1-yl)-1,2,4-oxadiazol-5-yl]piperidin-1-yl}methyl)piperidin-1-yl]-2-hydroxyethanone], at human 5-HT4b receptor, the Emax turned out to be 56.6% and a half-maximal response (EC50) required 0.0211 µM. At 5-HT4 receptor (setting [2]), the IC50 is less than 0.02 µM.
For `CCc1nn(-c2noc(C3CCN(CC4CN(C(=O)CO)C4)CC3)n2)c2c(F)cccc12` [compound 250, 1-[3-({4-[3-(3-ethyl-7-fluoro-1H-indazol-1-yl)-1,2,4-oxadiazol-5-yl]piperidin-1-yl}methyl)azetidin-1-yl]-2-hydroxyethanone], at human 5-HT4b receptor, the Emax was found to be 79.7% and a half-maximal response (EC50) required 0.0035 µM. In addition, at 5-HT4 receptor (setting [2]), the half-maximal inhibitory concentration (IC50) is less than 0.02 µM.

A word on the IC50: it is the point on the concentration scale where inhibition reaches its midpoint. In general, EC50 refers to the concentration needed to bring the measured effect to its halfway point. The low end stands for an effect from little substance, the high end for a need for much substance.
